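Briefly, cells in 96-well plates were exposed to five compound concentrations for 48 h, and endpoints were estimated by linear interpolation. TGI denotes the concentration required for complete inhibition of growth.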
Tests used:
Assay in all cases: NCI anticancer screen, dose series, 48 h
SF-539 CNS = system: SF-539 CNS
SN12C renal = system: SN12C renal
CCRF-CEM leukemia = system: CCRF-CEM leukemia
OVCAR-4 ovarian = system: OVCAR-4 ovarian
SNB-19 CNS = system: SNB-19 CNS
OVCAR-3 ovarian = system: OVCAR-3 ovarian
NCI-H23 lung = system: NCI-H23 lung
KM12 colon = system: KM12 colon
SF-295 CNS = system: SF-295 CNS
DU-145 prostate = system: DU-145 prostate
NCI-H522 lung = system: NCI-H522 lung
PC-3 prostate = system: PC-3 prostate
HCT-116 colon = system: HCT-116 colon
CAKI-1 renal = system: CAKI-1 renal
RXF 393 renal = system: RXF 393 renal
OVCAR-5 ovarian = system: OVCAR-5 ovarian
UACC-62 melanoma = system: UACC-62 melanoma

SMILES	TGI (SF-539 CNS) [µM]	TGI (SN12C renal) [µM]	TGI (CCRF-CEM leukemia) [µM]	TGI (OVCAR-4 ovarian) [µM]	TGI (SNB-19 CNS) [µM]	TGI (OVCAR-3 ovarian) [µM]	TGI (NCI-H23 lung) [µM]	TGI (KM12 colon) [µM]	TGI (SF-295 CNS) [µM]	TGI (DU-145 prostate) [µM]	TGI (NCI-H522 lung) [µM]	TGI (PC-3 prostate) [µM]	TGI (HCT-116 colon) [µM]	TGI (CAKI-1 renal) [µM]	TGI (RXF 393 renal) [µM]	TGI (OVCAR-5 ovarian) [µM]	TGI (UACC-62 melanoma) [µM]
COc1ccc(C2OC(c3ccncc3)=NN2C)cc1OC (stereo not drawn)	> 100	> 100	> 100	> 100	> 100	> 100	> 100	> 100	> 100	> 100	> 100	> 100	> 100	> 100	> 100	> 100	> 100
Oc1cccc(-c2nc3cc(F)ccc3s2)c1	55.8	82.7	73.8	52.3	99	43.4	70.7	34.6	50.7	57.9	25.7	65	53.8	35.2	> 100	52.9	35.1
CCC1(C)C=Cc2c(cc(O)c3c(=O)c4ccccc4n(C)c23)O1 (stereo not drawn)	> 10	> 10	> 10	> 10	> 10	> 10	> 10	> 10	> 10	> 10	> 10	> 10	> 10	> 10	> 10	> 10	> 10
Cc1nc2sc3ccccc3n2c(=O)c1N=Nc1ccc(Cl)cc1	> 100	> 100	> 100	> 100	> 100	> 100	> 100	> 100	> 100	> 100	> 100	> 100	> 100	> 100	> 100	> 100	> 100
CC(=O)O[C@H]1CC[C@@]2(C)C(=CC[C@H]3[C@@H]4C[C@H](N5CCOCC5)[C@H](OC(C)=O)[C@@]4(C)CC[C@@H]32)C1	> 100	> 100	> 100	> 100	> 100	> 100	> 100	> 100	> 100	> 100	> 100	> 100	> 100	> 100	> 100	> 100	> 100
COc1ccc2c(cnc3c4cc(OC)c(OC)cc4ccc23)c1	> 100	> 100	> 100	> 100	> 100	> 100	> 100	> 100	> 100	> 100	> 100	> 100	> 100	> 100	> 100	> 100	> 100
Cc1ccc2c(c1)C(=O)C1(C2)Cc2cccc(C)c2C1=O (stereo not drawn)	> 100	> 100	> 100	> 100	> 100	> 100	> 100	> 100	> 100	> 100	> 100	> 100	> 100	32.4	> 100	> 100	> 100
CC(=O)[C@@]1(O)CC[C@H]2[C@@H]3C[C@H](C)C4=CC(=O)C=C[C@]4(C)[C@@]3(F)[C@@H](O)C[C@@]21C	> 100	> 100	> 100	> 100	> 100	> 100	> 100	> 100	> 100	> 100	> 100	> 100	> 100	> 100	> 100	> 100	> 100
CCC/C(Cl)=N\OC(=O)Nc1ccc(OC(F)(F)F)cc1	33.3	21.1	> 26.7	39.8	> 58.7	25.2	53.8	30.8	31.7	33.4	2.39	32.8	> 51.6	3.05	31.2	35.9	48.7
